Test results taken from US8614333B2, “Acenaphtho heterocyclic compound and application thereof” (Dalian University of Technology, priority 2010, dated 2013).

Columns and labels:
Bcl-2 = assay: Western blotting, semiquantitative analysis of Bcl-2 protein bands; assay type: cell-based; details: control = 1, tumor cells
Description: (§1) The interest protein was detected by the corresponding antibody. The expression of the interest protein in the cells was detected by horseradish peroxidase-labeled secondary antibodies in combination with ECL coloration method. […] The concentration of the protein bands in the Western images were carried out semiquantitative analysis and normalization treatment with KODAK Gel Logic 1500 imaging system software.

[1] = biological target: T1, interaction between Bcl-2 and Bax (Homo sapiens, UniProt P10415); assay: Intracellular FRET, Bcl-2-CFP/Bax-YFP in Hela cells; assay type: cell-based; details: for Time (time period after which the interaction between Bcl-2 and Bax was interfered): at the concentration given
T1 construct: expressed in transfected cells; host or cells: Hela cells
T1 sequence (P10415 whole entry): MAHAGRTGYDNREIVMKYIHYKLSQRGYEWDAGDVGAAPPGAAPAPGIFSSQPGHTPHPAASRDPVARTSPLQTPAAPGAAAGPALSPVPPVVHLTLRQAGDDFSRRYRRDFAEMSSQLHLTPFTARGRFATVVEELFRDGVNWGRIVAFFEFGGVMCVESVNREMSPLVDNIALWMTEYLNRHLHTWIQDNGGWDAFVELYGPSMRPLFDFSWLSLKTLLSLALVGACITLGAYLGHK
Description: 2 μg of Bcl-2-CFP and Bax-YFP plasmids were transfected separately or simultaneously into Hela cells by using calcium phosphate coprecipitation method, 24 hours later, the cells were inoculated in a 6-well plate (2×10^5 cells/well), and the compound 1 to be detected dissolved in DMSO was added there into until the final concentration (2, 5, 10 and 15 μM) was achieved. 24 hours later (please refer to FIG. 5); the cells were washed with PBS for three times. The fluorescence value was detected by GENIOS fluorescence enzyme-labelled meter (TECAN, Swiss). In time-dependent experiment, the transfected cells were inoculated in a 6-well plate, after that, 40 μM of the compound was added thereinto. 3, 6 and 24 hours later (FIG. 6), the fluorescence intensities were detected by plate reader. As for the cell group in which only Bcl-2-CFP plasmid was transfected, the values at 475 nm emission wave length and 433 nm excitation wave length were recorded. As for the cell group in which only Bax-YFP plasmid was transfected, the values at 527 nm emission wave length and 505 nm excitation wave length were recorded. As for the cell group in which Bcl-2-CFP and Bax-YFP plasmids were co-transfected, the values at 527 nm and 475 emission wave lengths and 433 nm excitation wave length were recorded. The ratio of fluorescence intensity at 527 nm and 475 nm emission wave lengths was FRET. The FRET for the control group in which the plasmid was solely transfected was set as 1.0. […] In the cotransfected cells, the FRET increased up to 2.0 due to the interaction of Bcl-2 protein and Bax protein, and that the interference to the interaction between the two proteins increased and FRET decreased with the increase of the drug concentration and time. The cellular vitality was detected by MTT method. When the concentration of the compound reached 1 μM, the interaction between Bcl-2 and Bax can be interfered after 2 hours, and the results appeared concentration-time dependent trend.
Wherein the concentration and time meant that the detected compound interfered with the interaction between Bcl-2 and Bax at the concentration for the time period.

Mcl-1 = assay: Western blotting, semiquantitative analysis of Mcl-1 protein bands; assay type: cell-based; details: control = 1, tumor cells
Description: as §1

[2] = tested on: BAX shift towards the chondriosome; assay: Co-localization between Bax protein and chondriosome, Bax-YFP in MCF-7 cells; assay type: cell-based; details: for Doses (concentration at which the compound drove the BAX to shift towards the chondriosome): Bax-YFP/Mito Tracker Red; for Time (time period after which BAX shifted towards the chondriosome): at the concentration given
Description: 5 μg of Bax-YFP plasmid was transfected into MCF-7 cells by using calcium phosphate coprecipitation method, 24 hours later, the cells were inoculated in a 6-well plate (0.2×10^6 cells/well), and 10 μM of the compound 1 to be detected was added thereinto. 6 hours later, the cells were washed with PBS and hatched away from light with 50 nM Mito Tracker Red CMXRos (chondriosome specific probes; red) for 10 minutes. Then the cells were washed with PBS for three times, and the fluorescent image was scanned with Radiance2000 laser confocal microscopy (Bio-Rad, USA). Meanwhile, dual channel scanning was carried out, one channel was used to scan the green fluorescence of Bax-YFP, and the other channel was used to scan the red fluorescence of the CMXRos probe for indicating the chondriosome. […] When the Bax protein was localized on the chondriosome, the green and red fluorescence was superimposed into orange, as shown in FIG. 7.
Other 24 compounds were detected by the same experimental method as described above. […] Wherein the concentration and time meant that the detected compound simulated the BH3-only protein and driven the BAX to shift towards the chondriosome at the concentration for the time period.

His-tagged Mcl-1 protein = His-tagged Mcl-1 protein (Homo sapiens, UniProt Q07820); assay: ELISA assay, competitive binding to Mcl-1 protein (biotin-Bim/streptavidin plate); details: 20 nM His-tagged Mcl-1, method calculates average IC50, read-out: Mcl-1 binding constants
Sequence of His-tagged Mcl-1 protein (Q07820 whole entry): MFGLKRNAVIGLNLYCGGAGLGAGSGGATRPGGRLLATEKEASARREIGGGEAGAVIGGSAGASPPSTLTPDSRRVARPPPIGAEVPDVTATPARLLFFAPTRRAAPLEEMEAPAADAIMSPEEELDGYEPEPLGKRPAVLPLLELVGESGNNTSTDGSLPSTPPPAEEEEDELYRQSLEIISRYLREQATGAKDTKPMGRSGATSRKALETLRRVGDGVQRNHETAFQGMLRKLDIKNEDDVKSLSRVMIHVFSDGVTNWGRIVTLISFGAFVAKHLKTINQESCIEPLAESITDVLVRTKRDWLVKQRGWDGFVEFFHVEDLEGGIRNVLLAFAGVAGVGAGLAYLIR
Description: (§2) The present inventors used fluorescence polarization assay to detect the bonding force between the protein and the compounds in a previous study (PCT/CN2010/075521). […] ELISA assay was used to detect the bonding force between the compounds and the protein in this application.
(§3) Biotinylated Bim peptide was diluted to 0.09 μg/mL in SuperBlock blocking buffer in PBS and incubated for 1.5 h in 96-well microtiter plates already coated with streptavidin to allow the formation of the complex between Biotin-Bim and streptavidin. All incubations were performed at room temperature unless otherwise noted. Each inhibitor was first dissolved in pure DMSO to obtain a 10 mM stock solution. For each tested inhibitor, different concentrations of the inhibitor were incubated with 20 nM His-tagged Mcl-1 protein in PBS for 1 h with a final DMSO concentration of 4%. The plates were washed three times with PBS containing 0.05% Tween-20. The inhibitor and protein mixture (100 μL) were transferred to the plate containing the biotin-Bim/streptavidin complex and incubated for 2 h. The plate was then washed as before and mouse anti-His antibody that conjugated with horseradish peroxidase was added into the wells and incubated for 1 h. The plate was then washed with PBS containing 0.05% Tween-20. Finally, TMB was added to each well; the enzymatic reaction was stopped after 30 min by addition of H2SO4 (100 μL, 2M). Absorbances were measured with a TECAN GENios (Swiss, TECAN) microplate reader using a wavelength of 450 nm. Three independent experiments were performed with each inhibitor to calculate average IC50 value and standard deviation (SD).
(§4) The BH3 analogous degrees of other 11 compounds were detected by using the experimental method as described above. The protein binding constant (binding constant in table 1) between them and Bcl-2 and Mcl-1 proteins were also on nM grade.

Bcl-2 protein = Bcl-2 protein (Homo sapiens, UniProt P10415); assay: ELISA assay, competitive binding to Bcl-2 protein (biotin-Bim/streptavidin plate); details: method calculates average IC50, read-out: Bcl-2 binding constants
Sequence of Bcl-2 protein (P10415 whole entry, species assumed): as the sequence (P10415 whole entry) above
Description: as §2, §3, §4

[3] = tested on: MCF-7 cells transfected with BAX/BAK interfering plasmid; assay: Cytotoxicity by MTT, cells transfected with BAX/BAK interfering plasmid; assay type: cell-based; details: Homo sapiens, MCF7; MCF-7 with BAX/BAK interfering plasmid, MTT, 48 hours
Description: (§5) 3 μg of BAX/BAK interfering plasmid was transfected into MCF-7 cells by using calcium phosphate coprecipitation method, 24 hours later, the cells were collected. The expressions after the BAX and BAK proteins interfered with RNA was detected by Western, and the cell groups without plasmid transfection were treated similarly and were set as the control group. The transfected cells were inoculated in a 96-well plate (1×10^5 cells/well), the control experiment of the cell group without plasmid transfection was carried out in parallel. The compound 1 to be detected was added thereinto according to the concentration gradient designed before the experiment. 48 hours later, the cellular vitality was detected by MTT. The experimental results were shown in FIG. 9, Gossypol as nonspecific BH3 analogue was treated in parallel.
(§6) Other 24 compounds were also detected by the same experimental method as described above, the differences of IC50 values between the transfected cells and the without plasmid transfection cells were compared.

MCF-7 cells = assay: Cytotoxicity by MTT, cells without plasmid transfection; assay type: cell-based; details: Homo sapiens, MCF7; MCF-7, MTT, 48 hours; read-out: IC50 value in untransfected cells
Description: as §5, §6

Row | SMILES | concentration of the protein bands (semiquantitative, normalized), Bcl-2 (Bcl-2; 6 h) | concentration of the protein bands (semiquantitative, normalized), Bcl-2 (Bcl-2; 12 h) | concentration of the protein bands (semiquantitative, normalized), Bcl-2 (Bcl-2; 18 h) | concentration of the protein bands (semiquantitative, normalized), Bcl-2 (Bcl-2; 24 h) | Doses (concentration at which the compound interfered with the interaction between Bcl-2 and Bax) [1] [µM] | Time (time period after which the interaction between Bcl-2 and Bax was interfered) [1] [h] | concentration of the protein bands (semiquantitative, normalized), Mcl-1 (Mcl-1; 2 h) | concentration of the protein bands (semiquantitative, normalized), Mcl-1 (Mcl-1; 6 h) | Doses (concentration at which the compound drove the BAX to shift towards the chondriosome) [2] [µM] | Time (time period after which BAX shifted towards the chondriosome) [2] [h] | IC50 (His-tagged Mcl-1 protein) [µM] | IC50 (Bcl-2 protein) [µM] | melting point [°C] | IC50 [3] [µM] | IC50 (MCF-7 cells) [µM]
1 | O=C1N=C2C(=C1NCCCc1ccccc1)c1cccc3cccc2c13 [Compound 3, 9-(3-Phenyl-propylamino)-acenaphtho[1,2-b]pyrrol-8-one] | 0.99 | 0.99 | 0.49 | 0.18 | 0.2 | 2 | 0.65 | 0.29 | 0.2 | 2 | 0.014 | 0.008 | 252 to 253 | > 50 | 3
2 | CCCCNC1=C2C(=NC1=O)c1cccc3c(Sc4ccc(Br)cc4)ccc2c13 [Compound 7, 3-(4-Bromo-phenylsulfanyl)-9-butylamino-acenaphtho[1,2-b]pyrrol-8-one] | 0.99 | 0.99 | 0.51 | 0.20 | 0.3 | 3 | 0.68 | 0.32 | 0.5 | 3 | 0.014 | 0.066 | 245 to 246 | > 50 | 1.2
3 | O=C1N=C2C(=C1NCCCc1ccccc1)c1ccc(Sc3ccc(Br)cc3)c3cccc2c13 [Compound 8, 3-(4-Bromo-phenylsulfanyl)-9-(3-phenyl-propylamino)-acenaphtho[1,2-b]pyrrol-8-one] | 0.99 | 0.99 | 0.42 | 0.10 | 0.1 | 1 | 0.52 | 0.22 | 0.1 | 1 | 0.004 | 0.006 | 272 to 273 | > 50 | 1
4 | CCCCNC1=C2C(=NC1=O)c1cccc3c(N4CCSCC4)ccc2c13 [Compound 9, 9-Butylamino-3-thiomorpholin-4-yl-acenaphtho[1,2-b]pyrrol-8-one] | 0.99 | 0.99 | 0.49 | 0.20 | 0.4 | 2 | 0.60 | 0.29 | 0.6 | 3 | 0.016 | 0.063 | 239 to 240 | > 50 | 1.3
